Experimental data: US12729194B2, “Compounds for the treatment of human immunodeficiency virus” (priority 2019, dated 2026)

Tests used:
HIV-1 with HIV-1AD8 Env = assay: microbe, parasite or virus in culture; format: cell-based; settings: Human immunodeficiency virus 1; Cf2Th-CD4/CCR5 target cells, 48 hours, luciferase; means and standard errors of four experiments; read-out: 50% inhibitory concentration (IC50), AD8
HIV-1 with BG505 Env = assay: microbe, parasite or virus in culture; format: cell-based; settings: Human immunodeficiency virus 1; Cf2Th-CD4/CCR5 target cells, 48 hours, luciferase; means and standard errors of four experiments; read-out: 50% inhibitory concentration (IC50), BG505
[1] = system: HIV-1 with HIV-1JR-FL Env; assay: microbe, parasite or virus in culture; format: cell-based; settings: Human immunodeficiency virus 1; Cf2Th-CD4/CCR5 target cells, 48 hours, luciferase; means and standard errors of four experiments; read-out: 50% inhibitory concentration (IC50), JR-FL
HIV-1AD8 Env on VLPs [2] = assay: Reversibility of compound effects on VLP Env conformation (19b antibody recognition after washing)
Method: Characterization of VLP-associated Env: To prepare VLPs with HIV-1AD8 Env, 150-mm dishes of 30-40% confluent A549-Gag/Env cells were seeded and, on the following day, treated with 2 μg/ml doxycycline. Approximately 72 hours after induction, cell supernatants were harvested and cleared by low-speed centrifugation (500×g for 15 minutes at 4° C.) and 0.45-μ filtration. VLPs were pelleted by centrifugation at 100,000×g for one hour at 4° C. The resuspended VLP preparation was clarified by low-speed centrifugation. BMS-806 and compounds described herein were added to the clarified VLP-containing suspensions. In some cases, the VLP-compound mixtures were irradiated with a 100-watt, 365-nm ultraviolet (UV) lamp for 10 minutes at room temperature. For all UV studies, exposure of the samples to visible light was minimized.
For studies of the reversibility of effects, the compounds were added to the VLPs and mixed for several seconds at room temperature. Then the VLPs were pelleted (20,000×g for 30 minutes at 4° C.) twice, washing with 1.5 ml PBS with 2% DMSO. The pelleted VLPs were resuspended in 1 ml PBS with 2% DMSO and incubated at room temperature for various lengths of time (20 minutes—3 weeks). Control VLPs were incubated in the continued presence of the compounds at room temperature for the same length of time. Then the VLPs were pelleted (20,000×g for 30 minutes at 4° C.) and the pellet incubated with 1.5% Triton X-100 for 30 minutes at 4° C. The VLP lysates were centrifuged (20,000×g for 30 minutes at 4° C.) and the supernatants were incubated with antibodies (10 μg/ml) in a 50-μl volume with 25 mg/ml of Protein A-Sepharose beads for one hour at 4° C. The beads were pelleted (1000 rpm for 1 minute at room temperature) and washed three times with 1 ml wash buffer with 1% Triton X-100. The beads were suspended in NuPAGE LDS Sample Buffer (ThermoFisher), boiled and analyzed by Western blot, as described above.
The BMS-806-induced decrease in binding of the 19b anti-V3 antibody can be used as an indicator of BMS-806-Env binding, allowing estimation of the stability of the Env-compound complex. BMS-806 and BMS-529 were incubated with the HIV-1AD8 Env on VLPs. The VLPs were then washed and incubated at room temperature for various lengths of time in a buffer with (+/+) or without (+/−) compound. After this incubation, Env conformation was assessed using the 19b anti-V3 antibody, the 2G12 antibody (the binding of which is not affected by BMS-806), and a negative control human immunoglobulin (hIgG) preparation. 19b recognition of Env in the washed samples (+/−) was compared with those in the samples continuously incubated with the compound (+/+) and the untreated samples (−) (FIG. 4). […] Despite this slow rate of dissociation of compounds described herein from Env, the binding and the consequent effects of these compounds on Env conformation appear to be reversible.

HIV-1AD8 Env on VLPs [3] = assay: Shedding of gp120 from VLP Env; settings: 4° C. and 37° C., 4 days, no detergent
Method: Shedding of gp120 from VLP Env: The effect of compounds on the spontaneous shedding of gp120 from VLP Env was evaluated. VLPs with the wild-type HIV-1AD8 Env were prepared from the supernatants of A549-Gag/Env cells, as described above. The VLPs were suspended in PBS, to which was added either DMSO or a compound described herein. An aliquot of the VLP suspension in PBS/DMSO was processed as described below to serve as a Day 0 control. The VLP suspensions were incubated for 4 days at 4° C., room temperature or 37° C. (with gentle rocking). Then the VLPs were pelleted (100,000×g for 30 min at 4° C.). The pellets and supernatants were boiled in LDS sample buffer and analyzed by Western blotting with either 1:2000 goat anti-gp120 polyclonal antibody (ThermoFisher) and HRP-conjugated rabbit anti-goat IgG antibody, or with 1:5000 rabbit anti-Gag p55/p24/p17 antibody (Abcam) and HRP-conjugated goat anti-rabbit IgG antibody (Abcam).

SMILES: COc1ccc(-c2ccc(CNC(=O)c3c(F)c(F)c(N=[N+]=[N-])c(F)c3F)o2)c2[nH]cc(C(=O)C(=O)N3CCN(C(=O)c4ccccc4)CC3)c12 [AEG-II-168]
- IC50 (HIV-1 with HIV-1AD8 Env): 2.8 nM
- IC50 (HIV-1 with BG505 Env): 0.22 nM
- IC50 [1]: 1.5 nM
- Durability / reversibility of Env conformational effects (in words) (HIV-1AD8 Env on VLPs [2]; after washing): at least three weeks
- Spontaneous shedding of gp120 into the VLP supernatant (HIV-1AD8 Env on VLPs [3]): decreased the shedding of gp120

SMILES: COc1ccnc2[nH]cc(C(=O)C(=O)N3CCN(C(=O)c4ccccc4)C[C@H]3C)c12 [BMS-806, reference compound]
- IC50 (HIV-1 with HIV-1AD8 Env): 0.4 nM
- IC50 (HIV-1 with BG505 Env): 0.8 nM
- IC50 [1]: 1.6 nM
- Conformational effect on 19b binding after washing (HIV-1AD8 Env on VLPs [2]; twenty-four hours after washing, room temperature): much less evident
- Spontaneous shedding of gp120 into the VLP supernatant (HIV-1AD8 Env on VLPs [3]): decreased the shedding of gp120
